Results taken from patent US20240385180A1, “PRODUCTION OF ORGANOID DERIVED FROM CTC OF SMALL CELL LUNG CANCER PATIENT, AND IGF1R INHIBITOR AS A MOLECULAR TARGET DRUG FOR SMALL CELL LUNG CANCER” (KEIO UNIVERSITY, priority 2021, published 2024).

What was measured:
[1] = system: IGF-dependent small cell lung cancer organoids; assay: Effect of IGF1R inhibitor in vitro: number of living cells (CellTiter-Glo); type: cell-based, human; settings: 0.1, 1, 10, 100 μM in complete medium, fifth day after adding the drug, vs DMSO
Method: An IGF1R inhibitor was added to the medium of small cell lung cancer organoids, and the effect on the growth of small cell lung cancer organoids was investigated. As small cell lung cancer organoids, a plurality of types of each of IGF-dependent small cell lung cancer organoid lines and IGF-independent small cell lung cancer organoid lines were used. Furthermore, linsitinib (CAS number: 867160-71-2) was used as an IGF1R inhibitor. In addition, the number of living cells was measured using a commercially available kit (product name “CellTiter-Glo”, Promega). A small cell lung cancer organoid was dissociated into a single cell using TrypLE Express (Thermo Fisher Scientific), and further filtered using a 20 μm cell strainer. Then, 3×10^3 per well cells were seeded and cultured in complete medium added with 0.1, 1, 10, and 100 μM lincitinib. In addition, as a control, a group in which dimethyl sulfoxide (DMSO), which was used as a solvent for linsitinib, was added was also prepared. The number of living cells was measured on the fifth day after adding the drug.

[2] = system: IGF-dependent small cell lung cancer organoids; assay: In vitro apoptosis assay (Annexin V-FITC / propidium iodide flow cytometry); type: cell-based, human; settings: 1 μM, cultured for 5 days, vs DMSO
Method: An IGF1R inhibitor was added to the medium of small cell lung cancer organoids, and the occurrence of apoptosis was measured. First, a small cell lung cancer organoid was dissociated into a single cell using TrypLE Express (Thermo Fisher Scientific), further, filtered using a 20 μm cell strainer. Next, add 5×10^4 cells per well were seeded to a […], and cultured for 5 days in the presence of 1 μM IGF1R inhibitor or 1 μM FGFR inhibitor. DMSO was added to the control cell culture medium. Subsequently, using a commercially available kit (product name “TACS Annexin V-FITC Apoptosis Detection Kit”, R&D System), the induction of apoptosis was measured by flow cytometry using the BD FACSCalibur system (Becton Dickinson). FIG. 10 is a graph showing the results of the flow cytometry. In FIG. 10, the propidium iodide-positive and Annexin V-positive cells are the cells in which apoptosis was induced.

[3] = system: KOR317 line (YAP1 positive subtype, IGF-dependent small cell lung cancer organoid); assay: Effect of IGF1R inhibitor in vivo: tumor volume in mice transplanted with KOR317 line; settings: KOR317 (YAP1-positive, IGF-dependent) subcutaneous in NOD/Shi-scid, IL-2Rγ mice; 50 mg/kg once a day, 5 days a week, 5 weeks; vs vehicle
Method: (§1) Specifically, first, small cell lung cancer organoids (KOR317 line and KOR457 line) were peeled off from Matrigel (registered trademark) using cell recovery solution (BD Bioscience). The peeled small cell lung cancer organoids were kept on ice for 30 minutes while being loosened by pipetting every 10 minutes. Next, approximately 1×10^5 of respective small cell lung cancer organoids was resuspended in about 50 μL of Matrigel, and the respective suspensions was subcutaneously injected into mice. As the mice, 6-10 weeks old NOD/Shi-scid, IL-2Rγ mice were used. Once the tumor diameter (long×short×height/2) was approximately 100-150 mm^3, the subjects were randomly divided into a drug administration group and a placebo treatment group. Each group was set as n≥3. Subsequently, linsitinib (50 mg/kg) was administered to the drug administration group, and vehicle was administered to the placebo treatment group once a day, 5 days a week, for a total of 5 weeks. Linsitinib was dissolved in 30% PEG400-0.5% tween80-5% propylene glycol (vehicle) and administered. Tumor diameter (major axis×short axis×height/2) was measured once a week.

[4] = system: KOR457 line (ASCL1 positive subtype, IGF-independent small cell lung cancer organoid); assay: Effect of IGF1R inhibitor in vivo: tumor volume in mice transplanted with KOR457 line; settings: KOR457 (ASCL1-positive, IGF-independent) subcutaneous in NOD/Shi-scid, IL-2Rγ mice; 50 mg/kg once a day, 5 days a week, 5 weeks; vs vehicle
Method: as §1

C[C@]1(O)C[C@@H](c2nc(-c3ccc4ccc(-c5ccccc5)nc4c3)c3c(N)nccn32)C1 [IGF1R inhibitor, linsitinib]
growth of organoids (number of living cells) [1]: inhibits the growth | induction of apoptosis (propidium iodide-positive and Annexin V-positive cells) [2]: induces apoptosis | tumor growth (tumor volume over time) [3]: tumor growth was suppressed | tumor growth (tumor volume over time) [4]: no effect
